From patent US20150337013A1, “NOVEL ANTIBACTERIAL AGENTS FOR THE TREATMENT OF GRAM POSITIVE INFECTIONS” (priority 2008, published 2015)
Values joined by “and” are separate entries in the source; they are usually repeats but may differ in a detail not shown here. Equal entries are not always repeated. Where two headings read alike, the source gives them in different places.

How the values were obtained:
[1] = system: C. difficile spores (ATCC #43596); test: Hamster C. difficile infection (CDAD) protection model; format: in vivo, Syrian golden hamsters; conditions: oral 0.5 mg/kg once daily for 5 days (MET 70 mg/kg three times daily for 5 days)
Description: Syrian golden hamsters were pretreated with 10 mg/kg clindamycin subcutaneously 24 hours before bacterial challenge. An inoculum of 20 C. difficile spores (ATCC #43596) in sterile saline was administered orally. Treatment was initiated 4 hours post-inoculation with dH2O, metronidazole (MET), vancomycin (VAN), or a compound of the present invention. Oral dosing regimens for VAN and compounds of Formula I were 0.5 mg/kg once daily for 5 days. MET was administered at 70 mg/kg three times daily for 5 days. CDAD was confirmed as the cause of death by observations at necropsy, including wet tail and/or macroscopic cecal alterations. The % protection provided by each therapy tested was calculated at 1 and 21 days post-dosing.

[2] = system: Staphylococcus aureus SAU.278, Daptomycin resistant mutant (D10); format: cell-based; conditions: MHBc with 50 mg/L calcium, 18-20 hours at 37° C.
How it was run: (§1)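 Broth microdilution per CLSI M7-A7 in Mueller Hinton broth supplemented with 50 mg/L calcium; 2-fold compound dilutions, 5×10^5 bacteria per well, DMSO ≤1% final, 18-20 h at 37° C with aeration (200 rpm). MIC (μg/mL) = lowest concentration with no visible turbidity (growth: visible turbidity or OD600 ≥0.1).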

[3] = system: Enterococcus faecalis EFS.312, Daptomycin resistant mutant (EFA); format: cell-based; conditions: MHBc with 50 mg/L calcium, 18-20 hours at 37° C.
How it was run: as §1

[4] = system: Enterococcus faecium EFM.384, Daptomycin resistant mutant (14-A); format: cell-based; conditions: MHBc with 50 mg/L calcium, 18-20 hours at 37° C.
How it was run: as §1

gram positive bacteria = test: Antimicrobial activity against a panel of organisms, summary statements; format: cell-based; conditions: statement in words
Description: Compounds according to Formula I were tested for antimicrobial activity against a panel of organisms. Aerobic organisms, Staphylococcus aureus, Enterococcus faecalis and E. faecium, were tested by broth microdilution according to Clinical and Laboratory Standards Institute (CLSI) document M7-A7 (Clinical and Laboratory Standards Institute. Methods for Dilution Antimicrobial Susceptibility Tests for Bacteria that Grow Aerobically; Approved Standard—Seventh Edition. CLSI document M7-A7 [ISBN 1-56238-587-9]. Clinical and Laboratory Standards Institute, 940 West Valley Road, Suite 1400, Wayne, Pa. 19087-1898 USA, 2006) with modifications as described below. Mueller Hinton Broth (MHBc) was supplemented with 50 mg/L calcium (equivalent to human physiological levels of calcium) and assay plates were incubated 18-20 hours at 37° C. with aeration (200 rpm).
In all cases the final concentration of dimethyl sulfoxide incubated with cells is less than or equal to 1%. For minimum inhibitory concentration (MIC) calculations, 2-fold dilutions of compounds were added to wells of a microtiter plate containing 5×10^5 bacteria in a final volume of 100 μL of media. Following incubation, (18-20 hours at 37° C. with aeration at 200 rpm) growth was confirmed visually by placing plates over a viewing apparatus (stand with a mirror underneath) and then the optical density (OD600) was measured using a SpectraMax 340PC^384 plate reader. Growth was defined as turbidity that could be detected with the naked eye or achieving minimum OD600of 0.1. MIC values (in μg/mL) were defined as the lowest concentration producing no visible turbidity.

[5] = system: Enterococcus faecium EFM.14 (ATCC 6569); format: cell-based
How it was run: as §1

[6] = system: Enterococcus faecalis EFS.201 (ATCC 49452); format: cell-based
How it was run: as §1

[7] = system: Staphylococcus aureus SAU.42 (ATCC 29213); format: cell-based
How it was run: as §1

[8] = system: Staphylococcus aureus SAU.399 (ATCC 43300), Methicillin and Oxacillin Resistant; format: cell-based
How it was run: as §1

[9] = MHBc with 50 mg/L calcium, 18-20 hours at 37° C.

Row | Structure (SMILES) | Mean % Protection 1 Day Post Dosing [1] [%] | Mean % Protection 21 Days Post Dosing [1] [%] | Sa278 MIC [2] | Efs312 MIC [3] [µg/mL] | Efm384 MIC [4] [µg/mL] | as active or more active than daptomycin (gram positive bacteria) | C. diff MIC90 (Clostridium difficile) [µg/mL] | Efm14 MIC [5, 9] [µg/mL] | Efs201 MIC [6, 9] [µg/mL] | Sa42 MIC [7, 9] [µg/mL] | Sa399 MIC [8, 9] [µg/mL] | Efm14 MIC ([5]; ATCC 6569) [µg/mL] | Efs201 MIC ([6]; ATCC 49452) [µg/mL] | Sa42 MIC ([7]; ATCC 29213) [µg/mL] | Sa399 MIC ([8]; ATCC 43300) [µg/mL]
1 | Cc1ncc([N+](=O)[O-])n1CCO [Metronidazole, 2-methyl-5-nitro-1H-imidazole-1-ethanol, reference compound] | 100 | 0 | – | – | – | – | – | – | – | – | – | – | – | – | –
2 | C[C@H](CC(=O)O)[C@@H]1NC(=O)[C@@H](CO)NC(=O)CNC(=O)[C@H](CC(=O)O)NC(=O)[C@@H](C)NC(=O)[C@H](CC(=O)O)NC(=O)[C@H](CCCN)NC(=O)CNC(=O)[C@@H](NC(=O)[C@H](CC(=O)O)NC(=O)[C@@H](CC(N)=O)NC(=O)[C@H](Cc2c[nH]c3ccccc23)NC(=O)C2CCCCCCCCCCC2)[C@@H](C)OC(=O)[C@H](CC(=O)c2ccccc2N)NC1=O [Compound 28, N-cyclododecanecarbonyl-L-tryptophyl-D-asparaginyl-L-α-aspartyl-L-threonylglycyl-L-ornithyl-L-α-aspartyl-D-alanyl-L-α-aspartylglycyl-D-seryl-(3R)-3-methyl-L-α-glutamyl-(αS)-α,2-diamino-γ-oxobenzenebutanoic acid (13→4)-lactone] | 100 | 100 | 4 µg/mL and 8 µg/mL | >32 | 32 | as active or more active than daptomycin | 4 | – | – | – | – | – | – | – | –
3 | CN[C@H](CC(C)C)C(=O)N[C@H]1C(=O)N[C@@H](CC(N)=O)C(=O)N[C@H]2C(=O)N[C@H]3C(=O)N[C@H](C(=O)N[C@H](C(=O)O)c4cc(O)cc(O)c4-c4cc3ccc4O)[C@H](O)c3ccc(c(Cl)c3)Oc3cc2cc(c3O[C@@H]2O[C@H](CO)[C@@H](O)[C@H](O)[C@H]2O[C@H]2C[C@](C)(N)[C@H](O)[C@H](C)O2)Oc2ccc(cc2Cl)[C@H]1O [Vancomycin, vancomycin, reference compound] | 90 | 62 | – | – | – | – | – | – | – | – | – | – | – | – | –
4 | C[C@H](CC(=O)O)[C@@H]1NC(=O)[C@@H](CO)NC(=O)CNC(=O)[C@H](CC(=O)O)NC(=O)[C@@H](C)NC(=O)[C@H](CC(=O)O)NC(=O)[C@H](CCCN)NC(=O)CNC(=O)[C@@H](NC(=O)[C@H](CC(=O)O)NC(=O)[C@@H](CC(N)=O)NC(=O)[C@H](Cc2c[nH]c3ccccc23)NC(=O)Cc2ccc(-c3ccccc3)cc2)[C@@H](C)OC(=O)[C@H](CC(=O)c2ccccc2N)NC1=O [Compound 66] | – | – | >32 µg/mL | >32 | >32 | – | 8 | >32 | >32 | 8 | 8 | – | – | – | –
5 | CCCCCCCCCCCCOc1ccc(C(=O)N[C@@H](Cc2c[nH]c3ccccc23)C(=O)N[C@H](CC(N)=O)C(=O)N[C@@H](CC(=O)O)C(=O)N[C@@H]2C(=O)NCC(=O)N[C@@H](CCCN)C(=O)N[C@@H](CC(=O)O)C(=O)N[C@H](C)C(=O)N[C@@H](CC(=O)O)C(=O)NCC(=O)N[C@H](CO)C(=O)N[C@@H]([C@H](C)CC(=O)O)C(=O)N[C@@H](CC(=O)c3ccccc3N)C(=O)O[C@@H]2C)cc1 [Compound 39] | – | – | 2.00 µg/mL | 2 | 2 | – | 16 | 2.0 | 0.5 | 1.00 | 0.500 | – | – | – | –
6 | CCCCCCOc1ccc(C(=O)N[C@@H](Cc2c[nH]c3ccccc23)C(=O)N[C@H](CC(N)=O)C(=O)N[C@@H](CC(=O)O)C(=O)N[C@@H]2C(=O)NCC(=O)N[C@@H](CCCN)C(=O)N[C@@H](CC(=O)O)C(=O)N[C@H](C)C(=O)N[C@@H](CC(=O)O)C(=O)NCC(=O)N[C@H](CO)C(=O)N[C@@H]([C@H](C)CC(=O)O)C(=O)N[C@@H](CC(=O)c3ccccc3N)C(=O)O[C@@H]2C)cc1 [Compound 35] | – | – | 4.00 µg/mL | >32 | 32 | – | 2 | 2 | 1.0 | 0.5 | 0.5 | – | – | – | –
7 | CC(C)Cc1ccc(C(C)C(=O)N[C@@H](Cc2c[nH]c3ccccc23)C(=O)N[C@H](CC(N)=O)C(=O)N[C@@H](CC(=O)O)C(=O)N[C@@H]2C(=O)NCC(=O)N[C@@H](CCCN)C(=O)N[C@@H](CC(=O)O)C(=O)N[C@H](C)C(=O)N[C@@H](CC(=O)O)C(=O)NCC(=O)N[C@H](CO)C(=O)N[C@@H]([C@H](C)CC(=O)O)C(=O)N[C@@H](CC(=O)c3ccccc3N)C(=O)O[C@@H]2C)cc1 (single isomer, unassigned) [45 isomer II] | – | – | >32 µg/mL | >32 | >32 | – | 8 | – | – | – | – | 32 | 32 | 4 | 4
8 | C[C@H](CC(=O)O)[C@@H]1NC(=O)[C@@H](CO)NC(=O)CNC(=O)[C@H](CC(=O)O)NC(=O)[C@@H](C)NC(=O)[C@H](CC(=O)O)NC(=O)[C@H](CCCN)NC(=O)CNC(=O)[C@@H](NC(=O)[C@H](CC(=O)O)NC(=O)[C@@H](CC(N)=O)NC(=O)[C@H](Cc2c[nH]c3ccccc23)NC(=O)CCCCCCC2CCCCC2)[C@@H](C)OC(=O)[C@H](CC(=O)c2ccccc2N)NC1=O [Compound 25] | – | – | 1 µg/mL | 16 | 8 | – | 1 | – | – | – | – | 1 | 0.5 | 0.5 | 0.5
9 | CCCCCCCCOc1ccc(-c2ccc(C(=O)N[C@@H](Cc3c[nH]c4ccccc34)C(=O)N[C@H](CC(N)=O)C(=O)N[C@@H](CC(=O)O)C(=O)N[C@@H]3C(=O)NCC(=O)N[C@@H](CCCN)C(=O)N[C@@H](CC(=O)O)C(=O)N[C@H](C)C(=O)N[C@@H](CC(=O)O)C(=O)NCC(=O)N[C@H](CO)C(=O)N[C@@H]([C@H](C)CC(=O)O)C(=O)N[C@@H](CC(=O)c4ccccc4N)C(=O)O[C@@H]3C)cc2)cc1 [Compound 64] | – | – | 0.5 µg/mL | 16 | 4 | – | 1 | 1 | 0.5 | 0.125 | 0.25 | – | – | – | –
10 | C[C@H](CC(=O)O)[C@@H]1NC(=O)[C@@H](CO)NC(=O)CNC(=O)[C@H](CC(=O)O)NC(=O)[C@@H](C)NC(=O)[C@H](CC(=O)O)NC(=O)[C@H](CCCN)NC(=O)CNC(=O)[C@@H](NC(=O)[C@H](CC(=O)O)NC(=O)[C@@H](CC(N)=O)NC(=O)[C@H](Cc2c[nH]c3ccccc23)NC(=O)/C=C/c2ccc(-c3ccccc3)cc2)[C@@H](C)OC(=O)[C@H](CC(=O)c2ccccc2N)NC1=O [Compound 71] | – | – | 32 µg/mL | >32 | >32 | – | 16 | 16 | 8 | 2 | 2 | – | – | – | –
